Legend:
Test in all cases: Histone peptide microarray
Type in all cases: binding, human
Conditions in all cases: histone peptide array, GST-tagged reader
AIRE (PP) = tested on: AIRE (PP)
In short: (§1)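 Purified PHD finger domains fused to GST are screened against 293 synthetic histone peptides bearing one or several post-translational modifications. The protein is used at 0.5 μM, and the signal from four replicate arrays is averaged, with standard deviation given.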

BAZ2B = tested on: BAZ2B
In short: as §1

BPTF (PB) = tested on: BPTF (PB)
In short: as §1

CHD4 (PPCC) = tested on: CHD4 (PPCC)
In short: as §1

CHD5 (PCC) = tested on: CHD5 (PCC)
In short: as §1

CHD5 (PPCC) = tested on: CHD5 (PPCC)
In short: as §1

DIDO1 = tested on: DIDO1
In short: as §1

DPF2 (PPC2W2) = tested on: DPF2 (PPC2W2)
In short: as §1

ING1 = tested on: ING1
In short: as §1

ING2 = tested on: ING2
In short: as §1

ING3 = tested on: ING3
In short: as §1

ING4 = tested on: ING4
In short: as §1

ING5 = tested on: ING5
In short: as §1

KDM4C (TTP) = tested on: KDM4C (TTP)
In short: as §1

KDM5A (1) = tested on: KDM5A (1)
In short: as §1

KDM5A (3) = tested on: KDM5A (3)
In short: as §1

KDM5B (1) = tested on: KDM5B (1)
In short: as §1

KDM5B (3) = tested on: KDM5B (3)
In short: as §1

KDM7A = tested on: KDM7A
In short: as §1

MLL5 = tested on: MLL5
In short: as §1

MORC3 (CW) = tested on: MORC3 (CW)
In short: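 Binding read as mean relative signal from 4 replicates; microarray held 293 synthetic histone peptides with single or combinatorial PTMs. Each GST-tagged PHD reader was applied at 0.5 μM using the optimized Petell protocol.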

PHF13 = tested on: PHF13
In short: as §1

PHF21A = tested on: PHF21A
In short: as §1

PHF23 = tested on: PHF23
In short: as §1

PHF2 = tested on: PHF2
In short: as §1

PHF8 = tested on: PHF8
In short: as §1

PHRF1 (RP) = tested on: PHRF1 (RP)
In short: as §1

RAG2 = tested on: RAG2
In short: as §1

SP140L = tested on: SP140L
In short: as §1

TAF3 = tested on: TAF3
In short: as §1

TRIM66 (PB) = tested on: TRIM66 (PB)
In short: as §1

[1] = PB = PHD + Bromodomain, arrays performed twice, n of 4
[2] = PPCC = Dual PHD + Dual Chromodomain, arrays performed twice, n of 4
[3] = sheet "Array Heatmap", total n = 4

H4K5K8but (1-23): H4 1-23
Array Heatmap signal, AIRE (PP) (AIRE (PP); arrays performed twice, n of 4): 0.5575 | Array Heatmap signal, BAZ2B (BAZ2B; arrays performed twice, n of 4): 0.52 | Array Heatmap signal, BPTF (PB) (BPTF (PB); [1]): 0.3688 | Array Heatmap signal, CHD4 (PPCC) (CHD4 (PPCC); [2]): 0.6049 | Array Heatmap signal, CHD5 (PCC) (CHD5 (PCC); PCC = PHD + Dual Chromodomain, arrays performed twice, n of 4): 0.8285 | Array Heatmap signal, CHD5 (PPCC) (CHD5 (PPCC); [2]): 0.592 | Array Heatmap signal, DIDO1 (DIDO1; arrays performed twice, n of 4): 0.6112 | Array Heatmap signal, DPF2 (PPC2W2) (DPF2 (PPC2W2); PPC2W2 = Dual PHD + C2W2-type Zn-finger, arrays performed twice, n of 4): 0.658 | Array Heatmap signal, ING1 (ING1; arrays performed twice, n of 4): 0.5231 | Array Heatmap signal, ING2 (ING2; arrays performed twice, n of 4): 0.5955 | Array Heatmap signal, ING3 (ING3; arrays performed twice, n of 4): 0.4809 | Array Heatmap signal, ING4 (ING4; arrays performed twice, n of 4): 0.4968 | Array Heatmap signal, ING5 (ING5; arrays performed twice, n of 4): 0.3968 | Array Heatmap signal, KDM4C (TTP) (KDM4C (TTP); TTP = Tandem Tudor domain + PHD, arrays performed twice, n of 4): 0.558 | Array Heatmap signal, KDM5A (1) (KDM5A (1); arrays performed twice, n of 4): 0.515 | Array Heatmap signal, KDM5A (3) (KDM5A (3); arrays performed twice, n of 4): 0.457 | Array Heatmap signal, KDM5B (1) (KDM5B (1); arrays performed twice, n of 4): 0.7062 | Array Heatmap signal, KDM5B (3) (KDM5B (3); arrays performed twice, n of 4): 0.5218 | Array Heatmap signal, KDM7A (KDM7A; arrays performed twice, n of 4): 0.4497 | Array Heatmap signal, MLL5 (MLL5; arrays performed twice, n of 4): 0.5399 | Array Heatmap signal, MORC3 (CW) (MORC3 (CW); CW = CW-type Zn-finger, arrays performed twice, n of 4): 0.3933 | Array Heatmap signal, PHF13 (PHF13; arrays performed twice, n of 4): 0.6376 | Array Heatmap signal, PHF21A (PHF21A; arrays performed twice, n of 4): 0.5071 | Array Heatmap signal, PHF23 (PHF23; arrays performed twice, n of 4): 0.5226 | Array Heatmap signal, PHF2 (PHF2; arrays performed twice, n of 4): 0.4396 | Array Heatmap signal, PHF8 (PHF8; arrays performed twice, n of 4): 0.4044 | Array Heatmap signal, PHRF1 (RP) (PHRF1 (RP); arrays performed twice, n of 4): 0.4216 | Array Heatmap signal, RAG2 (RAG2; arrays performed twice, n of 4): 0.2516 | Array Heatmap signal, SP140L (SP140L; arrays performed twice, n of 4): 0.399 | Array Heatmap signal, TAF3 (TAF3; arrays performed twice, n of 4): 0.2895 | Array Heatmap signal, TRIM66 (PB) (TRIM66 (PB); [1]): 0.5587

H3K9me2 + K27me2: H3 6-30
Array Heatmap signal, AIRE (PP) (AIRE (PP); [3]): 0.5158 | Array Heatmap signal, BAZ2B (BAZ2B; [3]): 0.4949 | Array Heatmap signal, BPTF (PB) (BPTF (PB); [3]): 0.3713 | Array Heatmap signal, CHD4 (PPCC) (CHD4 (PPCC); [3]): 0.615 | Array Heatmap signal, CHD5 (PCC) (CHD5 (PCC); [3]): 0.8305 | Array Heatmap signal, CHD5 (PPCC) (CHD5 (PPCC); [3]): 0.6064 | Array Heatmap signal, DIDO1 (DIDO1; [3]): 0.6649 | Array Heatmap signal, DPF2 (PPC2W2) (DPF2 (PPC2W2); [3]): 0.6273 | Array Heatmap signal, ING1 (ING1; [3]): 0.5223 | Array Heatmap signal, ING2 (ING2; [3]): 0.6067 | Array Heatmap signal, ING3 (ING3; [3]): 0.521 | Array Heatmap signal, ING4 (ING4; [3]): 0.4936 | Array Heatmap signal, ING5 (ING5; [3]): 0.3864 | Array Heatmap signal, KDM4C (TTP) (KDM4C (TTP); [3]): 0.5461 | Array Heatmap signal, KDM5A (1) (KDM5A (1); [3]): 0.5009 | Array Heatmap signal, KDM5A (3) (KDM5A (3); [3]): 0.4645 | Array Heatmap signal, KDM5B (1) (KDM5B (1); [3]): 0.6708 | Array Heatmap signal, KDM5B (3) (KDM5B (3); [3]): 0.4954 | Array Heatmap signal, KDM7A (KDM7A; [3]): 0.3867 | Array Heatmap signal, MLL5 (MLL5; [3]): 0.5274 | Array Heatmap signal, MORC3 (CW) (MORC3 (CW); [3]): 0.385 | Array Heatmap signal, PHF13 (PHF13; [3]): 0.655 | Array Heatmap signal, PHF21A (PHF21A; [3]): 0.4962 | Array Heatmap signal, PHF23 (PHF23; [3]): 0.5491 | Array Heatmap signal, PHF2 (PHF2; [3]): 0.4856 | Array Heatmap signal, PHF8 (PHF8; [3]): 0.3721 | Array Heatmap signal, PHRF1 (RP) (PHRF1 (RP); [3]): 0.4454 | Array Heatmap signal, RAG2 (RAG2; [3]): 0.2639 | Array Heatmap signal, SP140L (SP140L; [3]): 0.3642 | Array Heatmap signal, TAF3 (TAF3; [3]): 0.2757 | Array Heatmap signal, TRIM66 (PB) (TRIM66 (PB); [3]): 0.6036
